Test results taken from patent US5519018A, “Substituted phenols and their use for the treatment of disorders caused by cell proliferation” (Behringwerke Aktiengesellschaft, priority 1992, dated 1996).
Where two headings read alike, the source gives them in different places.

Legend:
[1] = molecular target: T1, EGF receptor tyrosine kinase (EGFRTK) (Homo sapiens, UniProt P00533); assay: biochemical
T1 construct: This cell line expresses a large number of EGF receptors which have tyrosine kinase activity on the cell surface; endogenous in cells; host or cells: A 431 (ATCC CRL 1555), membrane preparation
T1 sequence (P00533 25-1210): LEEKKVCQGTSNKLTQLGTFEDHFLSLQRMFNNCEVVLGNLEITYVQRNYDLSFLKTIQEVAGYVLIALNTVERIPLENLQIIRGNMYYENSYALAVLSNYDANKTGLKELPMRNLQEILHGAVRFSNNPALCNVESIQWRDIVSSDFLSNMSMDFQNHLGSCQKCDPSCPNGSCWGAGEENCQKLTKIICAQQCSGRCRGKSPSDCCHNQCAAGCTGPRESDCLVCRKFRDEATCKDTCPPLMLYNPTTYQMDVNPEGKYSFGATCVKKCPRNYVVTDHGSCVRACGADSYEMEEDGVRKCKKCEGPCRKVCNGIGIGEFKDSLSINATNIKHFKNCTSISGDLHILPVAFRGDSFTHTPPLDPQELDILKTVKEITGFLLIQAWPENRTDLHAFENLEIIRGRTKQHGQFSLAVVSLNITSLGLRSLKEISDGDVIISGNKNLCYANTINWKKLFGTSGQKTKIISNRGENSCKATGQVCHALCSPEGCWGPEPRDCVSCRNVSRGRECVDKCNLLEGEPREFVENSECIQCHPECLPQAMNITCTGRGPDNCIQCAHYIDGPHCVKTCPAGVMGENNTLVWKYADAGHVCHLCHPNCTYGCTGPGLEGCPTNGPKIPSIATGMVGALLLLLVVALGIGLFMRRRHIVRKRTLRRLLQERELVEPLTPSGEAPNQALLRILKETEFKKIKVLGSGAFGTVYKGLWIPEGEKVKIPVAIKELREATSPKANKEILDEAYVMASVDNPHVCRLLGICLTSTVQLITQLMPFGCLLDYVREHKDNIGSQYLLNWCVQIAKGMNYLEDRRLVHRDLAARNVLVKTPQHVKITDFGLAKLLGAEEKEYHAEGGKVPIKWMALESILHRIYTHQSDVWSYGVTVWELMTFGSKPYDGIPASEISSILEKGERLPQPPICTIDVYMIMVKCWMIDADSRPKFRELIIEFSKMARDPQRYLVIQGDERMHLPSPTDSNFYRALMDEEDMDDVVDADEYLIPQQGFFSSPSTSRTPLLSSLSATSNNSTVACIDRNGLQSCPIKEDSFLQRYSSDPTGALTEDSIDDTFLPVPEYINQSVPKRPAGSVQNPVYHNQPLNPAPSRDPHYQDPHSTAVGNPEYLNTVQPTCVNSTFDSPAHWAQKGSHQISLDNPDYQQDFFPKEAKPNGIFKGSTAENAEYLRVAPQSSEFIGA
Method: Test for EGF receptor tyrosine kinase inhibition
This cell line expresses a large number of EGF receptors which have tyrosine kinase activity on the cell surface. The cells were cultured almost to confluence, washed with PBS (phosphate buffered saline, pH 7.2), scraped off the culture flask and incubated at 4° C. for 1 h, subjected to 20 strokes in a Potter and centrifuged at 1000 g for 30'. The supernatant was centrifuged at 20000 g for a further 20 min and the pellet was taken up in 100 μl per 1×10^6 cells as the membrane preparation.
The tyrosine kinase activity of the EGF receptor (EGFRTK) was measured using poly(Glu, Ala, Tyr), 6:3:1, as the substrate. […] After 15'at 30° C., the substrate was precipitated with 10% TCA (trichloroacetic acid), filtered on a millititer filtration plate (Millipore Corporation, Massachusetts, USA), washed and dried. The incorporation of ^32 P was determined by means of a liquid scintillation counter.

[2] = system: cAMP-dependent protein kinase (PKA); assay: Test for 3',5'-cAMP-dependent protein kinase inhibition (PKA catalytic subunit, Kemptide substrate); type: biochemical; conditions: 40 μM ATP, 15' at 30° C.
Method: Test for 3',5'-cAMP-dependent protein kinase inhibition
The catalytic subunit of the cAMP-dependent protein kinase (PKA) (Sigma) was reconstituted as described by Sigma (Sigma Chemical Co., St. Louis, Mo. USA). The enzyme activity was measured using Kemptide (Sigma) (Leu-Arg-Arg-Ala-Ser-Leu-Gly) as a substrate. […] The reaction was initiated by addition of gamma-^32 P ATP (40 μM) After 15'at 30° C., an aliquot part was added to p81 ion exchanger (2×2 cm; Whatman Paper Ltd., Great Britain), immersed in 75 mM H3 PO4, washed, dried, and the incorporation of ^32 P was determined by means of a liquid scintillation counter.

hela cells = assay: Test for inhibition of EGF-stimulated proliferation of tumor cells (hela, MTT); type: cell-based; conditions: 65 h; for inhibition at 5 µg/mL / inhibition at 25 µg/mL / inhibition at 1 µg/mL / inhibition at 0.2 µg/mL: Homo sapiens; for inhibition at 5 µg/mL: read-out: EGF stimulation % inhibition at 5 μg/ml; for inhibition at 25 µg/mL: read-out: EGF stimulation % inhibition at 25 μg/ml; for inhibition at 1 µg/mL: read-out: EGF stimulation % inhibition at 1 μg/ml; for inhibition at 0.2 µg/mL: read-out: EGF stimulation % inhibition at 0.2 μg/ml
Method: Test for inhibition of EGF- or bFGF-stimulated proliferation of tumor cells
2×10^3 hela cells per well were inoculated into a 96-well microtiter plate (in RPMI+1% FCS ). After 24 h, the medium was changed to RPMI+0.5% FCS and various concentrations of the test substance±EGF (0.1 nM)/bFGF (1 ng/ml) were added. Each group consisted of 4 wells; the control was only incubated±growth factor. After 65 h, 50 μof MTT (2.5 mg/ml in PBS) were added and the supernatant was removed after 7 h. The colored substance formed by the living cells was dissolved by addition of 100 μl of DMSO/well. The absorption was measured at 492 nm for each well with the aid of a 340 CC Multiscan photometer (Flow).
The mean value is formed from the 4 wells of a group and the absorption difference between the controls± growth factor (A) and between the groups with test substance± growth factor (B) is determined.

[3] = A 431 membranes, 1000 nM EGF, 32 μM ATP, 15' at 30° C., max. 51 μg/ml, read-out: EGFRTK IC50 (converted)
[4] = 5 μg/ml, hela cells, EGF 0.1 nM, tox = toxic
[5] = 1 μg/ml, hela cells, EGF 0.1 nM, tox = toxic
[6] = hela cells, EGF 0.1 nM, tox = toxic

Structure (SMILES)	IC50 [1, 3]	PKA % inhib. at 40 μg/ml [2]	EGF stimulation % inhibition at 25 μg/ml (hela cells; [6])	inhibition at 5 µg/mL (hela cells; [4])	further results
O=S(=O)([O-])c1cc(O)ccc1O.[K+]	8.06 µM	1%			inhibition at 5 µg/mL (hela cells; HeLa): 6%; inhibition at 25 µg/mL (hela cells; HeLa): 14%
Oc1ccc(O)c(O)c1 [1,2,4-Trihydroxybenzene]	190 µM	0%			EGF stimulation % inhibition at 5 μg/ml (hela cells; [4]): tox; inhibition at 1 µg/mL (hela cells; HeLa): 5%
O=C1C=CC(=O)c2cc3ccccc3cc21 [1,4-Anthraquinone]	2.79 µM				EGF stimulation % inhibition at 5 μg/ml (hela cells; [4]): tox; inhibition at 1 µg/mL (hela cells; [5]): 33%
Oc1ccc(O)c2ccccc12 [1,4-Naphthodiol]		76%			IC50 [1]: 9.36 µM; EGF stimulation % inhibition at 1 μg/ml (hela cells; [5]): tox; inhibition at 0.2 µg/mL (hela cells; HeLa): 29%
Cc1c(O)ccc(O)c1C [2,3-Dimethylhydroquinone]	4.64 µM	71%	tox	17%	
Oc1ccc(N=Cc2cc(O)ccc2O)cc1 [2,5-Dihydroxy-N-(4'-hydroxyphenyl)benzaldimine]	55.1 µM		tox	39%	
Oc1ccc(O)c(C=Nc2ccccc2)c1 [2,5-Dihydroxy-N-phenylbenzaldimine]	89.3 µM		tox	24%	
O=C1C=CC(=O)C(Cl)=C1 [2-Chlorobenzoquinone]		29%	tox		IC50 [1]: 9.68 µM; inhibition at 5 µg/mL (hela cells; HeLa): 29%
Oc1ccc(O)c(Cl)c1 [2-Chlorohydroquinone]		0%	tox	46%	IC50 [1]: 13.1 µM
Cc1cc(O)ccc1O [2-Methylhydroquinone]	8.86 µM	46%		66%	inhibition at 1 µg/mL (hela cells; [5]): 21%
Oc1ccc(O)c(-c2ccccc2)c1 [2-Phenylhydroquinone]	5.53 µM	25%		66%	inhibition at 1 µg/mL (hela cells; [5]): 11%
CC(C)(C)c1cc(O)ccc1O [2-tert-Butylhydroquinone]	5.72 µM	22%			inhibition at 1 µg/mL (hela cells; HeLa): 21%; inhibition at 5 µg/mL (hela cells; HeLa): 52%
O=C(O)c1cccc(N=Cc2cc(O)ccc2O)c1 [3-[-(2',5'-Dihydroxybenzylidene)amino]benzoic acid]	77.9 µM	0%	tox	44%	
O=C(O)c1ccc(NCc2cc(O)ccc2O)cc1 [4-[N-(2',5'-Dihydroxybenzyl)amino]benzoic acid]	17.8 µM	61%	tox	36%	
O=C(O)c1cc(N=Cc2cc(O)ccc2O)ccc1O [5-[N-(2',5'-Dihydroxybenzylidene)amino]-2-hydroxybenzoic acid]	27.3 µM	0%	tox	51%	
O=C1C=CC(=O)C=C1 [Benzoquinone]		45%		55%	IC50 [1]: 0.463 µM; inhibition at 1 µg/mL (hela cells; [5]): 36%
O=C(O)c1ccc(N=Cc2cc(O)ccc2O)cc1 [Ex. 1, 4-[N-(2',5'-Dihydroxybenzylidene)amino]benzoic acid]	67.5 µM	0%	tox	48%	
CN=Cc1cc(O)ccc1O [Ex. 2, 2,5-Dihydroxy-N-methylbenzaldimine]	13.1 µM	0%	tox	21%	
Oc1ccc(O)c(C=NCc2ccccc2)c1 [Ex. 3, N-Benzyl-2,5-dihydroxybenzaldimine]	7.48 µM	0%	tox	28%	
CN(C)N=Cc1cc(O)ccc1O [Ex. 4, 2,5-Dihydroxy-N,N-dimethylbenzaldehyde hydrazone]	7.66 µM	63%	tox	46%	
COC(=O)[C@H](Cc1c[nH]cn1)N=Cc1cc(O)ccc1O [Ex. 5, (S)-α-N-(2,5-Dihydroxybenzylidene)histidine methyl ester]		0%			IC50 [1]: 43.7 µM; inhibition at 5 µg/mL (hela cells; HeLa): 10%; inhibition at 25 µg/mL (hela cells; HeLa): 44%
CCCCCCN=Cc1cc(O)ccc1O [Ex. 6, N-Hexyl-2,5-dihydroxybenzaldimine]	95.6 µM	0%	tox	18%	
CCN=Cc1cc(O)ccc1O [Ex. 7, N-Ethyl-2,5-hydroxybenzaldimine]	74.2 µM	0%	tox	28%	
CC(C)N=Cc1cc(O)ccc1O [Ex. 8, 2,5-Dihydroxy-N-isopropylbenzaldimine]	46.3 µM	0%	tox	28%	
Oc1ccc(O)c(C=NN2CCCCC2)c1 [Ex. 10, 2,5-Dihydroxy-N-piperidinobenzaldimine]	47.7 µM	0%			
O=Cc1cc(O)ccc1O [Gentisaldehyde]	145 to 217 µM			16%	inhibition at 1 µg/mL (hela cells; [5]): 0%
Oc1ccc(O)cc1 [Hydroquinone]	0.908 µM				inhibition at 1 µg/mL (hela cells; HeLa): 29%; inhibition at 5 µg/mL (hela cells; HeLa): 43%
Cc1cc(O)c2ccccc2c1O [Menadiol]	150 µM	0%			
O=C1C=CC(=O)c2ccccc21 [Naphthoquinone]					IC50 [1]: 1.26 µM; inhibition at 0.2 µg/mL (hela cells; 0.2 μg/ml, hela cells, EGF 0.1 nM): 11%
